The results in this text go back to patent US10526325B2, “Bicyclic heterocyclic derivatives” (Merck Patent GmbH, priority 2015, dated 2020).

Experiment [1] has as its target PDHK2 (Homo sapiens (Human), UniProt Q15119). The experiment can be described thus: Biochemical activity testing of PDHK2: PDC inactivation assay. Particulars: human rec PDHK2, porcine heart PDC, 5 μM ATP, read-out: IC50 PDHK2 (enzyme assay). From the text: Biochemical Activity Testing of PDHK2: PDC Inactivation Assay
The biochemical activity assay for PDHK2 is based on the inactivation of PDC through phosphorylation by PDHK2. The assay is run in two steps: the enzymatic PDHK2 reaction in which isolated PDC is phosphorylated by PDHK2 with ATP as co-substrate and the PDC activity assay in which pyruvate and NAD are converted to acetyl-CoA and NADH. The PDC activity correlates to the increase in NADH and thereby is detectable directly via the increasing fluorescence signal (Exc 340 nm, Em 450 nm). Inhibition of PDHK2 results in a lower phosphorylation status and thereby a less decrease in activity of PDC and a stronger increase in NADH fluorescence signal.
The PDC inactivation assay is performed in Greiner 384-well microtiter plates and is used for high throughput screen. 4 μl of PDHK2 (human, rec, Carna Bioscience, 10 ng/μl-137 nM final concentration) and PDC (isolated from porcine heart, Sigma-Aldrich, 20 mU/ml final concentration) are incubated in the absence or presence of the test compound (10 dilution concentrations) for 30 min at room temperature in kinase buffer (15 mM potassium phosphate buffer, pH 7.0, 60 mM KCl, 1.5 mM DTT, 2.5 mM MgCl2, 0.0125% (w/v) BSA, 0.125% Pluronic F-68). The kinase reaction is started by the addition of 4 μl ATP substrate solution (fc 5 μM in kinase buffer). After 30 min incubation at 37° C. 40 μl of PDC reaction solution (100 mM Tris/HCl, pH 7.8, 0.5 mM EDTA, 1 mM MgCl2, 50 mM NaF, 0.25 mM Coenzyme A, 5 mM pyruvate, 1 mM NAD, 5 mM DTT, 1 mM thiamine pyrophosphate) is added. The first fluorescence measurement is performed on a Perkin Elmer Envision (Exc 340 nm, Em 450 nm). The reaction is incubated for 45 min at room temperature. Afterwards a second fluorescence measurement is performed and the PDC activity is calculated by the difference between both measurements. As full value for the PDHK2 assay the inhibitor-free PDHK2 reaction is used. The pharmacological zero value used is DCA (Sigma-Aldrich) in a final concentration of 3 mM. The inhibitory values […] were determined using either the program Symyx Assay Explorer® or Condosseo® from GeneData.

Experiment [2] addresses human PDHK2 (12-407) (Homo sapiens (Human), UniProt Q15119). The experiment can be described thus: Isothermal titration calorimetry (ITC) binding. Particulars: ITC at 30° C., pH 7.5. How it is done:
Isothermal Titration Calorimetry
ITC measurements were performed with a VP-ITC micro calorimeter (Microcal, LLC/GE Healthcare Bio-Sciences Aft Uppsala, Sweden). In general titrations were performed by titrating the protein (50 μM) to the test compound (5 μM) in 12 μl injections. All binding experiments were carried out at 30° C. In general the test compounds were diluted form DMSO stock solutions into the measurement buffer with a maximum final concentration of 1% DMSO. The measurement buffer was 20 mM HEPES, 135 mM KCl, 1 mM TCEP, 2 mM MgCl2, 15 mM NaH2PO4, pH 7.5. The human PDHK2 (12-407) was produced in E. coli as his-tagged protein and purified by affinity chromatography. The tag was removed by side specific proteolysis. Before titration the protein buffer was changed to the measurement buffer containing the same DMSO concentration as the test compound dilution. ITC data analysis was performed using Origin 7 calorimetry software from the same supplier. For most measurements a binding model of one binding site was assumed. According to the applied mathematical model it is possible to calculate the binding constant (KA), the observed binding enthalpy (ΔH^obs) as well as the stoichiometry (N) of the formed complex.
Preceding analysis the raw data was corrected for the heats of dilution by extrapolating from the saturation value from the end of titration. In order to allow for direct comparison between the respective experimental series and protein preparations the protein concentration was corrected by referencing titrations to a well behaved standard inhibitor. The apparent stoichiometry values defined the fraction of binding competent protein and compensated for relative errors in protein concentration measurements. This corrected protein concentration was used to set up ITC experiment series with test compounds. Any deviations from ideal 1:1 stoichiometry observed here were attributed to errors in compound concentration. This nominal compound concentration was corrected as well to achieve 1:1 stoichiometry in the fit.

Experiment [3] relates to PDH-E1alpha (pSer300) in HEK293T cells. The experiment in a line: Cellular immunofluorescence assay, PDH-E1alpha (pSer300) in HEK293T cells. The class given is cell-based, human. Particulars: Homo sapiens, HEK-293T, 5 hours incubation, anti-PDH-E1alpha (pSer300) immunofluorescence, read-out: IC50 (cell data). How it is done:
Cellular Assay for Determination of Compound Activities
Compound activities were determined in a cellular immunofluorescence assay. Human HEK293T cells were seeded into black 384-well plates with clear bottom and grown overnight.
Next day, test compounds were added to the wells and the plates incubated for 5 hours. Following this, cells were fixed with formaldehyde, permeabilised and blocked. The primary antibody, Anti-PDH-E1alpha (pSer300), AP1064 (Merck Millipore) was added and incubated overnight in the plate wells. Next, cells were washed and the secondary antibody, Alexa Fluor 488, goat anti-rabbit ab (A-11008, Invitrogen) was added together with Hoechst 33258 (H3569, Invitrogen) and incubated for 1 hour in the plate wells. Finally, cells were washed and the plates were measured on the laser scanning cytometer acumen hci (TTpLabtech).
The raw data were normalized against a pharmacological inhibitor control and dose response curves were generated by plotting the percent effect values using the software package Genedata screener (Genedata).

pIC50, pKd: −log10 of the molar value.

Regarding `C[C@@](O)(C(=O)N1CCc2c(cnn2-c2ccc(Cl)cc2)C1)C(F)(F)F` [Compound A1, (2R)-1-[1-(4-chlorophenyl)-6,7-dihydro-4H-pyrazolo[4,3-c]pyridin-5-yl]-3,3,3-trifluoro-2-hydroxy-2-methyl-propan-1-one], the pIC50 (in general, the negative decadic logarithm of the IC50, by convention in mol/L) in experiment [1] was greater than 6.52; in experiment [3], 4.30 to 5.52. Further, the pKd (commonly the negative decadic logarithm of the Kd, by convention in mol/L) in experiment [2] is greater than 6.52.

Regarding `C[C@@](O)(C(=O)N1CCc2nn(-c3ccc(Cl)cc3)cc2C1)C(F)(F)F` [Compound A2, (2R)-1-[2-(4-chlorophenyl)-6,7-dihydro-4H-pyrazolo[4,3-c]pyridin-5-yl]-3,3,3-trifluoro-2-hydroxy-2-methyl-propan-1-one], the pIC50 in experiment [1] was 4.30 to 5.52. In experiment [2], this compound gave a pKd of 5.52 to 6.52.

Consider `C[C@@](O)(C(=O)N1CCc2c(cnn2-c2ccccc2)C1)C(F)(F)F` [Compound A3, (R)-3,3,3-Trifluoro-2-hydroxy-2-methyl-1-(1-phenyl-1,4,6,7-tetrahydro-pyrazolo[4,3-c]pyridin-5-yl)-propan-1-one], for which the pIC50 was greater than 6.52 in experiment [1] and 5.52 to 6.52 in experiment [3]. The same compound showed a pKd in experiment [2] greater than 6.52.

For `C[C@@](O)(C(=O)N1CCc2c(cnn2-c2ccc(F)cc2)C1)C(F)(F)F` [Compound A4, (R)-3,3,3-Trifluoro-1-[1-(4-fluoro-phenyl)-1,4,6,7-tetrahydro-pyrazolo[4,3-c]pyridin-5-yl]-2-hydroxy-2-methyl-propan-1-one], the pIC50 in experiment [1] was greater than 6.52; in experiment [3], 5.52 to 6.52. In addition, in experiment [2], the pKd is greater than 6.52.

`C[C@@](O)(C(=O)N1CCc2c(cnn2-c2ccc(F)cc2F)C1)C(F)(F)F` [Compound A5, (R)-1-[1-(2,4-Difluoro-phenyl)-1,4,6,7-tetrahydro-pyrazolo[4,3-c]pyridin-5-yl]-3,3,3-trifluoro-2-hydroxy-2-methyl-propan-1-one]: the pIC50 is greater than 6.52 in experiment [1] and 5.52 to 6.52 in experiment [3]. For the same compound, the pKd in experiment [2] was greater than 6.52.

In the case of `C[C@@](O)(C(=O)N1CCc2nn(-c3ccc(F)cc3F)cc2C1)C(F)(F)F` [Compound A6, (R)-1-[2-(2,4-Difluoro-phenyl)-2,4,6,7-tetrahydro-pyrazolo[4,3-c]pyridin-5-yl]-3,3,3-trifluoro-2-hydroxy-2-methyl-propan-1-one], the results for the pIC50 in experiment [1] and in experiment [3] were 5.52 to 6.52 and 4.30 to 5.52, respectively. The pKd in experiment [2] was greater than 6.52.

Turning to `CC(C)(C)n1ncc2c1CCN(C(=O)[C@@](C)(O)C(F)(F)F)C2` [Compound A7, (R)-1-(1-tert-Butyl-1,4,6,7-tetrahydro-pyrazolo[4,3-c]pyridin-5-yl)-3,3,3-trifluoro-2-hydroxy-2-methyl-propan-1-one], the values for the pIC50 in experiment [1] and in experiment [3] were greater than 6.52 and 5.52 to 6.52, respectively. The same compound showed a pKd in experiment [2] greater than 6.52.

As for `CC(C)(C)n1cc2c(n1)CCN(C(=O)[C@@](C)(O)C(F)(F)F)C2` [Compound A8, (R)-1-(2-tert-Butyl-2,4,6,7-tetrahydro-pyrazolo[4,3-c]pyridin-5-yl)-3,3,3-trifluoro-2-hydroxy-2-methyl-propan-1-one], the negative logarithm of the IC50 (pIC50) in experiment [1] is 5.52 to 6.52; in experiment [3] it was 4.30 to 5.52. Besides, the pKd in experiment [2] is 5.52 to 6.52.

Regarding `C[C@H]1CN(C(=O)[C@@](C)(O)C(F)(F)F)Cc2cnn(-c3ccc(F)cc3)c21` [Compound A15, (R)-3,3,3-Trifluoro-1-[(S)-1-(4-fluoro-phenyl)-7-methyl-1,4,6,7-tetrahydro-pyrazolo[4,3-c]pyridin-5-yl]-2-hydroxy-2-methyl-propan-1-one], the pIC50 in experiment [1] and in experiment [3] was 5.52 to 6.52 each time.

Regarding `C[C@H]1CN(C(=O)[C@@](C)(O)C(F)(F)F)Cc2cnn(-c3ccccc3)c21` [Compound A19, (R)-3,3,3-Trifluoro-2-hydroxy-2-methyl-1-((S)-7-methyl-1-phenyl-1,4,6,7-tetrahydro-pyrazolo[4,3-c]pyridin-5-yl)-propan-1-one], the pIC50 in experiment [1] and in experiment [3] was 5.52 to 6.52 in each case.

`C[C@H]1CN(C(=O)[C@@](C)(O)C(F)(F)F)Cc2cn[nH]c21` [Compound A29, (R)-3,3,3-Trifluoro-2-hydroxy-2-methyl-1-((S)-7-methyl-1,4,6,7-tetrahydro-pyrazolo[4,3-c]pyridin-5-yl)-propan-1-one]: the pIC50 in experiment [1] was 5.52 to 6.52. This compound also had a pKd in experiment [2] of 5.52 to 6.52.

Take `C[C@@H]1CN(C(=O)C(C)(C)O)Cc2cnn(-c3ccc(F)cc3)c21` [Compound A42, 1-[(R)-1-(4-Fluoro-phenyl)-7-methyl-1,4,6,7-tetrahydro-pyrazolo[4,3-c]pyridin-5-yl]-2-hydroxy-2-methyl-propan-1-one]: in experiment [1], the pIC50 is 5.52 to 6.52. The pKd in experiment [2] is greater than 6.52.

Regarding `C[C@@](O)(C(=O)N1CCc2c(ncn2-c2ccc(F)cc2)C1)C(F)(F)F` [Compound A44, (R)-3,3,3-Trifluoro-1-[1-(4-fluoro-phenyl)-1,4,6,7-tetrahydro-imidazo[4,5-c]pyridin-5-yl]-2-hydroxy-2-methyl-propan-1-one], the pIC50 was 5.52 to 6.52 in experiment [1] and 4.30 to 5.52 in experiment [3].

`C[C@@](O)(C(=O)N1CCc2c(ncn2-c2ccc(Cl)cc2)C1)C(F)(F)F` [Compound A45, (R)-1-[1-(4-Chloro-phenyl)-1,4,6,7-tetrahydro-imidazo[4,5-c]pyridin-5-yl]-3,3,3-trifluoro-2-hydroxy-2-methyl-propan-1-one]: the pIC50 in experiment [1] is 5.52 to 6.52; in experiment [3] it was 4.30 to 5.52.

Turning to `C[C@@](O)(C(=O)N1CCn2c(nnc2-c2ccccc2)C1)C(F)(F)F` [Compound A48, (R)-3,3,3-Trifluoro-2-hydroxy-2-methyl-1-(3-phenyl-5,6-dihydro-8H-[1,2,4]triazolo[4,3-a]pyrazin-7-yl)-propan-1-one], the negative-log IC50 (pIC50) in experiment [1] was 5.52 to 6.52. This compound showed a pKd in experiment [2] greater than 6.52.

Take `C[C@H]1CN(C(=O)[C@@](C)(O)C(F)(F)F)Cc2cnc(-c3ccc(F)cc3F)n21` [Compound A55, (R)-1-[(S)-3-(2,4-Difluoro-phenyl)-5-methyl-5,6-dihydro-8H-imidazo[1,5-a]pyrazin-7-yl]-3,3,3-trifluoro-2-hydroxy-2-methyl-propan-1-one]: the pIC50 in experiment [1] was 5.52 to 6.52.

In the case of `C[C@H]1CN(C(=O)[C@@](C)(O)C(F)(F)F)Cc2cnc(-c3ncc(F)cc3F)n21` [Compound A56, (R)-1-[(S)-3-(3,5-Difluoro-pyridin-2-yl)-5-methyl-5,6-dihydro-8H-imidazo[1,5-a]pyrazin-7-yl]-3,3,3-trifluoro-2-hydroxy-2-methyl-propan-1-one], the pIC50 in experiment [1] was 4.30 to 5.52.
